Laboratory results taken from patent publication US12077503B2, “Substituted cyclic amides and their use as herbicides” (FMC CORPORATION, priority 2015, dated 2024).

Assays:
Assay type in all cases: in vivo
[1] = system: velvetleaf (Abutilon theophrasti); assay: Test G Pre-Emergence Protocol; details: Abutilon theophrasti, pre-emergence, 312 h, evaluated after 13 days
Outline: (§1)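 Visual injury (0–100) at day 13 after a single pre-emergence spray. Rates: 15.625, 62.5, 250 g/ha in acetone–water 50:50 with 0.5% Tween 20. Growth conditions: 24/16° C, 14 h light, 65% humidity.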

[2] = system: redroot pigweed (Amaranthus retroflexus); assay: Test G Pre-Emergence Protocol; details: Amaranthus retroflexus, pre-emergence, 312 h, evaluated after 13 days
Outline: as §1

[3] = system: barnyardgrass (Echinochloa crus-galli); assay: Test G Pre-Emergence Protocol; details: Echinochloa crus-galli, pre-emergence, 312 h, evaluated after 13 days
Outline: as §1

[4] = system: corn (Zea mays); assay: Test G Pre-Emergence Protocol; details: Zea mays, pre-emergence, 312 h, evaluated after 13 days
Outline: as §1

[5] = system: giant foxtail (Setaria faberi); assay: Test G Pre-Emergence Protocol; details: Setaria faberi, pre-emergence, 312 h, evaluated after 13 days
Outline: as §1

[6] = system: ivy-leaved morning glory (Ipomoea hederacea); assay: Test G Pre-Emergence Protocol; details: Ipomoea, pre-emergence, 312 h, evaluated after 13 days
Outline: as §1

[7] = system: velvetleaf (Abutilon theophrasti); assay: Test G Post-Emergence Protocol; details: Abutilon theophrasti, post-emergence, 312 h, read-out: Velvetleaf damage rating
Outline: (§2)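 Foliar application was made 8 days after sowing, using an aqueous spray of the active in acetone/water (50:50) with 0.5% Tween 20, at doses of 15.625, 62.5 or 250 g/ha. Injury was assessed 13 days later, where 100 meant the plant was fully damaged.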

[8] = system: redroot pigweed (Amaranthus retroflexus); assay: Test G Post-Emergence Protocol; details: Amaranthus retroflexus, post-emergence, 312 h, read-out: Pigweed, Redroot damage rating
Outline: as §2

[9] = system: barnyardgrass (Echinochloa crus-galli); assay: Test G Post-Emergence Protocol; details: Echinochloa crus-galli, post-emergence, 312 h, read-out: Barnyardgrass damage rating
Outline: as §2

[10] = system: corn (Zea mays); assay: Test G Post-Emergence Protocol; details: Zea mays, post-emergence, 312 h, read-out: Corn damage rating
Outline: as §2

[11] = system: giant foxtail (Setaria faberi); assay: Test G Post-Emergence Protocol; details: Setaria faberi, post-emergence, 312 h, read-out: Foxtail, Giant damage rating
Outline: as §2

[12] = system: ivy-leaved morning glory (Ipomoea hederacea); assay: Test G Post-Emergence Protocol; details: Ipomoea, post-emergence, 312 h, read-out: Morningglory, Ivy-leaved damage rating
Outline: as §2

[13] = 15.625 g ai/ha, evaluated after 13 days (100=total damage to plant; 0=no damage to plant)
[14] = 62.5 g ai/ha, evaluated after 13 days, 100=total damage to plant, 0=no damage to plant
[15] = 250 g ai/ha, evaluated after 13 days, 100=total damage to plant, 0=no damage to plant

CN1C[C@@H](c2ccc(CO)cc2)[C@H](C(=O)Nc2cccc(F)c2F)C1=O (racemic) [Compound 1820]
0%: pest or weed control at 15.625 g/ha ([1]; 15.625 g ai/ha, read-out: Velvetleaf damage rating (100=total damage to plant; 0=no damage to plant)) | pest or weed control at 62.5 g/ha ([1]; 62.5 g ai/ha, 100=total damage to plant, 0=no damage to plant, read-out: Velvetleaf damage rating) | pest or weed control at 250 g/ha ([1]; 250 g ai/ha, read-out: Velvetleaf damage rating (100=total damage to plant; 0=no damage to plant)) | pest or weed control at 15.625 g/ha ([2]; 15.625 g ai/ha, read-out: Pigweed, Redroot damage rating (100=total damage to plant; 0=no damage to plant)) | pest or weed control at 62.5 g/ha ([2]; 62.5 g ai/ha, 100=total damage to plant, 0=no damage to plant, read-out: Pigweed, Redroot damage rating) | pest or weed control at 250 g/ha ([2]; 250 g ai/ha, read-out: Pigweed, Redroot damage rating (100=total damage to plant; 0=no damage to plant)) | pest or weed control at 15.625 g/ha ([3]; 15.625 g ai/ha, read-out: Barnyardgrass damage rating (100=total damage to plant; 0=no damage to plant)) | pest or weed control at 62.5 g/ha ([3]; 62.5 g ai/ha, 100=total damage to plant, 0=no damage to plant, read-out: Barnyardgrass damage rating) | pest or weed control at 250 g/ha ([3]; 250 g ai/ha, read-out: Barnyardgrass damage rating (100=total damage to plant; 0=no damage to plant)) | plant injury at 15.625 g/ha ([4]; 15.625 g ai/ha, read-out: Corn damage rating (100=total damage to plant; 0=no damage to plant)) | plant injury at 62.5 g/ha ([4]; 62.5 g ai/ha, 100=total damage to plant, 0=no damage to plant, read-out: Corn damage rating) | plant injury at 250 g/ha ([4]; 250 g ai/ha, read-out: Corn damage rating (100=total damage to plant; 0=no damage to plant)) | pest or weed control at 15.625 g/ha ([5]; 15.625 g ai/ha, read-out: Foxtail, Giant damage rating (100=total damage to plant; 0=no damage to plant)) | pest or weed control at 62.5 g/ha ([5]; 62.5 g ai/ha, 100=total damage to plant, 0=no damage to plant, read-out: Foxtail, Giant damage rating) | pest or weed control at 250 g/ha ([5]; 250 g ai/ha, read-out: Foxtail, Giant damage rating (100=total damage to plant; 0=no damage to plant)) | pest or weed control at 15.625 g/ha ([6]; 15.625 g ai/ha, read-out: Morningglory, Ivy-leaved damage rating (100=total damage to plant; 0=no damage to plant)) | pest or weed control at 62.5 g/ha ([6]; 62.5 g ai/ha, 100=total damage to plant, 0=no damage to plant, read-out: Morningglory, Ivy-leaved damage rating) | pest or weed control at 250 g/ha ([6]; 250 g ai/ha, read-out: Morningglory, Ivy-leaved damage rating (100=total damage to plant; 0=no damage to plant)) | pest or weed control at 15.625 g/ha [7, 13] | pest or weed control at 62.5 g/ha [7, 14] | pest or weed control at 250 g/ha [7, 15] | pest or weed control at 15.625 g/ha [8, 13] | pest or weed control at 62.5 g/ha [8, 14] | pest or weed control at 250 g/ha [8, 15] | pest or weed control at 15.625 g/ha [9, 13] | pest or weed control at 62.5 g/ha [9, 14] | pest or weed control at 250 g/ha [9, 15] | plant injury at 15.625 g/ha [10, 13] | plant injury at 62.5 g/ha [10, 14] | plant injury at 250 g/ha [10, 15] | pest or weed control at 15.625 g/ha [11, 13] | pest or weed control at 62.5 g/ha [11, 14] | pest or weed control at 250 g/ha [11, 15] | pest or weed control at 15.625 g/ha [12, 13] | pest or weed control at 62.5 g/ha [12, 14] | pest or weed control at 250 g/ha [12, 15]
